Where two headings read alike, the source gives them in different places. Bridge positions count the residues as written; N and C are the ends. Ends that are not written are not given here. Peptide text beside a SMILES is read from it.
Key:
IDE [1] = target: T1, IDE (Homo sapiens, UniProt P14735); test: biochemical; conditions: for IC50: FRET1, listed in Table 1, read-out: IC50, summary of results of the initial test; for Ki: substrate FRET1 5 μM, Ki from IC50 with the Cheng-Prusoff equation, read-out: Ki FRET1; for IC50 <500 uM?: initial test at 500 uM
T1 construct: made in house; host or cells: bacteria
T1 sequence (P14735 1-1019): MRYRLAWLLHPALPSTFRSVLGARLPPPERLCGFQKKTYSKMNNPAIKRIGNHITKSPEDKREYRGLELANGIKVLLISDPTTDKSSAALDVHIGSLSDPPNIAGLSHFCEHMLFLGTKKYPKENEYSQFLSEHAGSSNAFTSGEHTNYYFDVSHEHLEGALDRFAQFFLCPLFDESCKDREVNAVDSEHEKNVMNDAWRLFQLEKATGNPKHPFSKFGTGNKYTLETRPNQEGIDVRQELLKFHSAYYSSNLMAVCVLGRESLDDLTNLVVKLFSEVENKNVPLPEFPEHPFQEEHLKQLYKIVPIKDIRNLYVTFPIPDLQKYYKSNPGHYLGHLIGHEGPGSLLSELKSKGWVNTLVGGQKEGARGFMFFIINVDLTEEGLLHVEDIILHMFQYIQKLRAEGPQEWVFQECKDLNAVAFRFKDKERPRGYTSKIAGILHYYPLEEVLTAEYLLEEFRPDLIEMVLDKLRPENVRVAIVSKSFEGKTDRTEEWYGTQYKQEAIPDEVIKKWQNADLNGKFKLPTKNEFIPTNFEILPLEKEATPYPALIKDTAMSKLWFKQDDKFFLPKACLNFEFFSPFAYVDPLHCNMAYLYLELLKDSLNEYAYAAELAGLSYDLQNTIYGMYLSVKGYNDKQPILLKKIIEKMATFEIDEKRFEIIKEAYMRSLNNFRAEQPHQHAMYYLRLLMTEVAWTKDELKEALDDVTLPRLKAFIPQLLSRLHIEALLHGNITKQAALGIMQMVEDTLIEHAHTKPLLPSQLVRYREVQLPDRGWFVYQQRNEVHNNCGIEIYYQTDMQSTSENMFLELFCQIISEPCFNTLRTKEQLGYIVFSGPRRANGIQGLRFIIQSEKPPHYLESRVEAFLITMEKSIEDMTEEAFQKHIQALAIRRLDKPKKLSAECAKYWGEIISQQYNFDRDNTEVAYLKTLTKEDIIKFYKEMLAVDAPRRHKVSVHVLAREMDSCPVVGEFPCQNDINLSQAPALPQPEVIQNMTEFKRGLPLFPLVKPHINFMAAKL
Protocol: The six selected peptide sequences (C7C-1, C7C-2, 12–1, 12–2, 12–3 and 12–4) were synthesized, together with a variety of modifications, yielding a total of 25 peptides (Table 1). […] Other modifications included N-terminal acetylation and C-terminal amidation, included to mimic the charge state of the peptides when incorporated in the phage coat protein (Table 1).
IDE activity was quantified by monitoring the degradation of Mca-[…](Dnp) (FRET1, 5 μM), fluoresceinated and biotinylated amyloid ß-protein (FAßB; 500 nM) or recombinant human insulin (50 nM) in PBS supplemented with 0.05% BSA. […] In vitro activity assays incorporated recombinant human IDE (1 nM) purified from bacteria. For quantitation of insulin degradation in primary murine skin fibroblasts, cells (1 x 10^5/well) were plated in 96-well plates and maintained in DMEM supplemented with 10% fetal bovine serum (FBS), 2mM glutamine, penicillin and streptomycin. After addition of insulin (10 nM or 100 nM), samples of conditioned medium were removed daily and quickly frozen, then insulin levels were quantified in parallel by ELISA according to manufacturer’s recommendations (Crystal Chem, Downers Grove, IL, USA). Assessment of the activity of P12-3A against a variety of matrix-metalloproteases was conducted using the Matrix Metalloproteinase (MMP) Inhibitor Profiling Kit, Fluorometric RED (Enzo Life Sciences, Inc., Farmingdale, NY, USA) according to manufacturer’s recommendations using the broad-spectrum MMP inhibitor, NNGH, as a positive control.

IDE [2] = target: T1, IDE; test: biochemical; conditions: for IC50: from initial test at 10 uM using insulin (100 nM), read-out: IC50 (summary of results, listed in Table 1); for Ki: substrate recombinant human insulin 50 nM, Ki from IC50 with the Cheng-Prusoff equation
From the text: The six selected peptide sequences (C7C-1, C7C-2, 12–1, 12–2, 12–3 and 12–4) were synthesized, together with a variety of modifications, yielding a total of 25 peptides (Table 1). For the 12-mer peptides, we synthesized variants of the parent peptides truncated at one or both termini, to test whether the entire sequence was necessary or not, in the hope that shorter, and thus less expensive, sequences might be effective. Other modifications included N-terminal acetylation and C-terminal amidation, included to mimic the charge state of the peptides when incorporated in the phage coat protein (Table 1). To assess the extent to which these peptide sequences inhibit IDE, we quantified their potency in protease activity assays using recombinant human IDE and two different substrates: FRET1, a fluorogenic peptide, and recombinant human insulin.
IDE activity was quantified by monitoring the degradation of Mca-[…](Dnp) (FRET1, 5 μM), fluoresceinated and biotinylated amyloid ß-protein (FAßB; 500 nM) or recombinant human insulin (50 nM) in PBS supplemented with 0.05% BSA. FRET1 degradation was measured by changes in fluorescence (λex = 340 nm, λem = 420 nm); FAßB degradation was monitored by fluorescence polarization (λex = 488 nm, λem = 525 nm), as described; and insulin degradation was quantified by ELISA. In vitro activity assays incorporated recombinant human IDE (1 nM) purified from bacteria. For quantitation of insulin degradation in primary murine skin fibroblasts, cells (1 x 10^5/well) were plated in 96-well plates and maintained in DMEM supplemented with 10% fetal bovine serum (FBS), 2mM glutamine, penicillin and streptomycin. After addition of insulin (10 nM or 100 nM), samples of conditioned medium were removed daily and quickly frozen, then insulin levels were quantified in parallel by ELISA according to manufacturer’s recommendations (Crystal Chem, Downers Grove, IL, USA). Assessment of the activity of P12-3A against a variety of matrix-metalloproteases was conducted using the Matrix Metalloproteinase (MMP) Inhibitor Profiling Kit, Fluorometric RED (Enzo Life Sciences, Inc., Farmingdale, NY, USA) according to manufacturer’s recommendations using the broad-spectrum MMP inhibitor, NNGH, as a positive control.

[3] = initial test, percent of initial velocity relative to DMSO-only controls, individual replicates, read-out: Percent activity at 500 uM, Replicate 1-4
[4] = judged as IC50 <100 uM?, individual replicates, read-out: Percent activity at 500 uM, Replicate 1-4
[5] = initial test, percent of initial velocity relative to DMSO-only controls, N 4, read-out: Percent activity at 500 uM, Mean
[6] = judged as IC50 <100 uM?, N 4, read-out: Percent activity at 500 uM, Mean

Row | IC50 (IDE [1]) [µM] | remaining activity at 500 µM (IDE [1]; [3]) [%] | remaining activity at 500 µM (IDE [1]; [4]) [%] | Ki (IDE [1]) [µM] | IC50 (IDE [2]) [µM] | Ki (IDE [2]) [µM] | IC50 <500 uM? (IDE [1]) | remaining activity at 500 µM (IDE [1]; [5]) [%] | remaining activity at 500 µM (IDE [1]; [6]) [%] | IC50 <10 uM? (IDE [2]; initial test at 10 uM using insulin (100 nM)) | remaining activity at 0.016 µM (IDE [2]; insulin ELISA, Cmpd 0.016 uM, Runs 1-3, read-out: Percent Activity (normalized source data)) [%] | remaining activity at 0.08 µM (IDE [2]; insulin ELISA, Cmpd 0.08 uM, Runs 1-3, read-out: Percent Activity (normalized source data)) [%] | remaining activity at 0.4 µM (IDE [2]; insulin ELISA, Cmpd 0.4 uM, Runs 1-3, read-out: Percent Activity (normalized source data)) [%] | remaining activity at 2 µM (IDE [2]; insulin ELISA, Cmpd 2 uM, Runs 1-3, read-out: Percent Activity (normalized source data)) [%] | remaining activity at 10 µM (IDE [2]; insulin ELISA, Cmpd 10 uM, Runs 1-3, read-out: Percent Activity (normalized source data)) [%] | Compound
1 | > 500 | 76.6 | 86.6 | ≥ 500 | > 10 | ≥ 10 |  |  |  |  |  |  |  |  |  | WSPISGKF-NH2 [P12-4B]
2 | > 500 | 74.3 | 91.1 | ≥ 500 | > 10 | ≥ 10 |  |  |  |  |  |  |  |  |  | Ac-PISGKFFQ-NH2 [P12-4D]
3 | > 500 | 59.7 | 77.6 | ≥ 500 | > 10 | ≥ 10 |  |  |  |  |  |  |  |  |  | Ac-SGKFFQRF [P12-4C]
4 | > 500 |  | 88.8 | > 500 | > 10 | > 10 |  |  |  |  |  |  |  |  |  | Ac-FPMPSRPH-NH2 [P12-2D]
5 | > 100 |  | 59.9 | > 100 | > 10 | > 10 | YES |  |  |  |  |  |  |  |  | LNFPMPSRPHSS [P12-2]

Further lines, the compound ahead of its results:

Row | Compound | IC50 (IDE [1]) [µM] | remaining activity at 500 µM (IDE [1]; [3]) [%] | remaining activity at 500 µM (IDE [1]; [4]) [%] | Ki (IDE [1]) [µM] | IC50 (IDE [2]) [µM] | Ki (IDE [2]) [µM] | IC50 <500 uM? (IDE [1]) | remaining activity at 500 µM (IDE [1]; [5]) [%] | remaining activity at 500 µM (IDE [1]; [6]) [%] | IC50 <10 uM? (IDE [2]; initial test at 10 uM using insulin (100 nM)) | remaining activity at 0.016 µM (IDE [2]; insulin ELISA, Cmpd 0.016 uM, Runs 1-3, read-out: Percent Activity (normalized source data)) [%] | remaining activity at 0.08 µM (IDE [2]; insulin ELISA, Cmpd 0.08 uM, Runs 1-3, read-out: Percent Activity (normalized source data)) [%] | remaining activity at 0.4 µM (IDE [2]; insulin ELISA, Cmpd 0.4 uM, Runs 1-3, read-out: Percent Activity (normalized source data)) [%] | remaining activity at 2 µM (IDE [2]; insulin ELISA, Cmpd 2 uM, Runs 1-3, read-out: Percent Activity (normalized source data)) [%] | remaining activity at 10 µM (IDE [2]; insulin ELISA, Cmpd 10 uM, Runs 1-3, read-out: Percent Activity (normalized source data)) [%]
6 | CC[C@H](C)[C@@H]1NC(=O)[C@H](CO)NC(=O)[C@H](Cc2c[nH]c3ccccc23)NC(=O)[C@H](Cc2c[nH]c3ccccc23)NC(=O)[C@H](CO)NC(=O)[C@@H](NC(=O)[C@H](C)N)CSSC[C@@H](C(=O)NCC(=O)O)NC(=O)[C@H](CC(C)C)NC(=O)[C@H](Cc2c[nH]cn2)NC1=O [C7C-1] (H-ACSWWSIHLCG-OH; disulfide 2-10 (inferred)) |  |  | 52 |  |  |  | YES | 11.4 | 44.2 | YES | 75 | 93.7 | 66.1 | 73.9 | 51.8
7 | Ac-MPSRPHSS [P12-2C] | > 500 |  | 72.7 | > 500 | > 10 | > 10 |  |  |  |  |  |  |  |  | 
8 | CC(C)C[C@@H]1NC(=O)[C@H](Cc2c[nH]cn2)NC(=O)CNC(=O)[C@H](C)NC(=O)[C@H](CC(N)=O)NC(=O)[C@@H](NC(=O)[C@H](C)N)CSSC[C@@H](C(=O)NCC(=O)O)NC(=O)[C@H](CCC(N)=O)NC(=O)[C@H](CO)NC1=O [C7C-2] (H-ACNAGHLSQCG-OH; disulfide 2-10 (inferred)) |  | 48.4 | 76.4 |  |  |  |  | 54 | 72.8 |  |  |  |  |  | 
9 | LNFPMPSR-NH2 [P12-2B] | > 500 | 81.3 |  | > 500 | > 10 | > 10 |  |  |  |  |  |  |  |  | 
10 | CC[C@H](C)[C@@H]1NC(=O)[C@H](CO)NC(=O)[C@H](Cc2c[nH]c3ccccc23)NC(=O)[C@H](Cc2c[nH]c3ccccc23)NC(=O)[C@H](CO)NC(=O)[C@@H](NC(=O)[C@H](C)N)CSSC[C@@H](C(=O)NCC(N)=O)NC(=O)[C@H](CC(C)C)NC(=O)[C@H](Cc2c[nH]cn2)NC1=O [C7C-1A] (H-ACSWWSIHLCG-NH2; disulfide 2-10 (inferred)) |  | 25.1 | 56.6 |  |  |  | YES | 22.5 | 59.5 |  |  |  |  |  | 
11 | CC[C@H](C)[C@@H]1NC(=O)[C@H](CO)NC(=O)[C@H](Cc2c[nH]c3ccccc23)NC(=O)[C@H](Cc2c[nH]c3ccccc23)NC(=O)[C@H](CO)NC(=O)[C@@H](NC(=O)[C@H](C)N)CSSC[C@@H](C(=O)NCC(=O)NCC(=O)NCC(=O)O)NC(=O)[C@H](CC(C)C)NC(=O)[C@H](Cc2c[nH]cn2)NC1=O [C7C-1B] (H-ACSWWSIHLCGGG-OH; disulfide 2-10 (inferred)) |  | 30.3 | 63.2 |  |  |  | YES | 30.4 | 56.8 |  |  |  |  |  | 
12 | CC(C)C[C@@H]1NC(=O)[C@H](Cc2c[nH]cn2)NC(=O)CNC(=O)[C@H](C)NC(=O)[C@H](CC(N)=O)NC(=O)[C@@H](NC(=O)[C@H](C)N)CSSC[C@@H](C(=O)NCC(N)=O)NC(=O)[C@H](CCC(N)=O)NC(=O)[C@H](CO)NC1=O [C7C-2A] (H-ACNAGHLSQCG-NH2; disulfide 2-10 (inferred)) |  |  | 92.5 |  |  |  |  | 94.1 | 92.7 |  |  |  |  |  | 
13 | LNFPMPSRPHSS-NH2 [P12-2A] | > 100 | 31.8 | 58.5 | > 100 | > 10 | > 10 | YES |  |  |  |  |  |  |  | 

From paper PMC5814047, “Peptidic inhibitors of insulin-degrading enzyme with potential for dermatological applications discovered via phage display” (PLoS ONE, 2018)
